# Experimental data as given in the NIST ThermoML archive (doi:10.1021/je500065k).
# ± gives the expanded uncertainty stated by the source.
# Conditions: 101.33 kPa, Liquid; for electrical conductivity: the complex impedance method; for mass density: Vibrating tube method
smiles,measurement,setting,value
CC[N+](C)(CC)CCOC.F[B-](F)(F)F,electrical conductivity,263.15 K,0.0055 ± 0.0001 S/m
same,electrical conductivity,273.15 K,0.0156 ± 0.0002 S/m
same,viscosity,283.15 K,1350 ± 240 mPa·s
same,mass density,283.15 K,1188.2 ± 1.5 kg/m3
same,electrical conductivity,283.15 K,0.0381 ± 0.0004 S/m
same,viscosity,288.15 K,890 ± 140 mPa·s
same,mass density,288.15 K,1184.8 ± 1.5 kg/m3
same,viscosity,293.15 K,604 ± 81 mPa·s
same,mass density,293.15 K,1181.3 ± 1.5 kg/m3
same,electrical conductivity,293.15 K,0.0821 ± 0.0008 S/m
same,viscosity,298.15 K,422 ± 49 mPa·s
same,mass density,298.15 K,1177.8 ± 1.5 kg/m3
same,viscosity,303.15 K,303 ± 30 mPa·s
same,mass density,303.15 K,1174.4 ± 1.5 kg/m3
same,electrical conductivity,303.15 K,0.153 ± 0.002 S/m
same,viscosity,308.15 K,222 ± 18 mPa·s
same,mass density,308.15 K,1171 ± 1.5 kg/m3
same,viscosity,313.15 K,167 ± 11 mPa·s
same,mass density,313.15 K,1167.7 ± 1.5 kg/m3
same,electrical conductivity,313.15 K,0.262 ± 0.003 S/m
same,viscosity,318.15 K,128 ± 7 mPa·s
same,mass density,318.15 K,1164.4 ± 1.5 kg/m3
same,viscosity,323.15 K,99.7 ± 3.9 mPa·s
same,mass density,323.15 K,1161.1 ± 1.5 kg/m3
same,electrical conductivity,323.15 K,0.414 ± 0.004 S/m
same,viscosity,328.15 K,79.1 ± 2.1 mPa·s
same,mass density,328.15 K,1157.9 ± 1.5 kg/m3
same,viscosity,333.15 K,63.7 ± 1.1 mPa·s
same,mass density,333.15 K,1154.7 ± 1.5 kg/m3
same,electrical conductivity,333.15 K,0.612 ± 0.006 S/m
same,viscosity,338.15 K,52 ± 0.6 mPa·s
same,mass density,338.15 K,1151.4 ± 1.5 kg/m3
same,viscosity,343.15 K,43 ± 0.7 mPa·s
same,mass density,343.15 K,1148.2 ± 1.5 kg/m3
same,electrical conductivity,343.15 K,0.857 ± 0.009 S/m
same,viscosity,348.15 K,36 ± 0.6 mPa·s
same,mass density,348.15 K,1145 ± 1.4 kg/m3
same,viscosity,353.15 K,30.5 ± 0.5 mPa·s
same,mass density,353.15 K,1141.8 ± 1.4 kg/m3
same,electrical conductivity,353.15 K,1.16 ± 0.01 S/m
CC[N+](C)(CC)CCOC.O=S(=O)([N-]S(=O)(=O)C(F)(F)F)C(F)(F)F,electrical conductivity,234.15 K,0.00083 ± 1e-05 S/m
same,electrical conductivity,243.15 K,0.0033 ± 0.0001 S/m
same,electrical conductivity,253.15 K,0.0113 ± 0.0001 S/m
same,electrical conductivity,263.15 K,0.0301 ± 0.0003 S/m
same,electrical conductivity,273.15 K,0.0662 ± 0.0007 S/m
same,viscosity,283.15 K,166 ± 11 mPa·s
same,mass density,283.15 K,1420.6 ± 1.9 kg/m3
same,electrical conductivity,283.15 K,0.127 ± 0.001 S/m
same,viscosity,288.15 K,123 ± 6 mPa·s
same,mass density,288.15 K,1416.1 ± 1.9 kg/m3
same,viscosity,293.15 K,92.7 ± 3.3 mPa·s
same,mass density,293.15 K,1411.5 ± 1.9 kg/m3
same,electrical conductivity,293.15 K,0.216 ± 0.002 S/m
same,viscosity,298.15 K,71.8 ± 1.6 mPa·s
same,mass density,298.15 K,1406.9 ± 1.9 kg/m3
same,viscosity,303.15 K,56.8 ± 0.8 mPa·s
same,mass density,303.15 K,1402.3 ± 1.9 kg/m3
same,electrical conductivity,303.15 K,0.336 ± 0.003 S/m
same,viscosity,308.15 K,45.7 ± 0.8 mPa·s
same,mass density,308.15 K,1397.7 ± 1.9 kg/m3
same,viscosity,313.15 K,37.4 ± 0.6 mPa·s
same,mass density,313.15 K,1393.2 ± 1.9 kg/m3
same,electrical conductivity,313.15 K,0.488 ± 0.005 S/m
same,viscosity,318.15 K,31 ± 0.5 mPa·s
same,mass density,318.15 K,1388.6 ± 1.9 kg/m3
same,viscosity,323.15 K,26.1 ± 0.4 mPa·s
same,mass density,323.15 K,1384 ± 1.9 kg/m3
same,electrical conductivity,323.15 K,0.67 ± 0.007 S/m
same,viscosity,328.15 K,22.2 ± 0.4 mPa·s
same,mass density,328.15 K,1379.5 ± 1.9 kg/m3
same,viscosity,333.15 K,19.1 ± 0.3 mPa·s
same,mass density,333.15 K,1375 ± 1.9 kg/m3
same,electrical conductivity,333.15 K,0.869 ± 0.009 S/m
same,viscosity,338.15 K,16.6 ± 0.3 mPa·s
same,mass density,338.15 K,1370.5 ± 1.8 kg/m3
same,viscosity,343.15 K,14.5 ± 0.3 mPa·s
same,mass density,343.15 K,1366.1 ± 1.8 kg/m3
same,electrical conductivity,343.15 K,1.09 ± 0.01 S/m
same,viscosity,348.15 K,12.8 ± 0.2 mPa·s
same,mass density,348.15 K,1361.7 ± 1.8 kg/m3
same,viscosity,353.15 K,11.4 ± 0.2 mPa·s
same,mass density,353.15 K,1357.3 ± 1.8 kg/m3
same,electrical conductivity,353.15 K,1.33 ± 0.01 S/m
